Measured values from article PMC3914206.

What was measured:
Type in all cases: binding
[1] = molecular target: T1, panel of 442 kinases (Homo sapiens, UniProt Q16539); conditions: Compound Concentration 10 µM
T1 construct: purchased KINOMEscan
Source text: (§1) We assessed the selectivity of members of this scaffold using the KINOMEscan methodology across a near comprehensive panel of 442 kinases [[18,27]].

[2] = molecular target: T2, panel of 442 kinases (Homo sapiens, UniProt P43405); conditions: kinase SYK; compound concentration 10 µM
T2 construct: purchased KINOMEscan
Source text: as §1

[3] = molecular target: T3, panel of 442 kinases (Homo sapiens, UniProt Q16288); conditions: kinase TRKC; compound concentration 10 µM
T3 construct: purchased KINOMEscan
T3 sequence (Q16288 32-839): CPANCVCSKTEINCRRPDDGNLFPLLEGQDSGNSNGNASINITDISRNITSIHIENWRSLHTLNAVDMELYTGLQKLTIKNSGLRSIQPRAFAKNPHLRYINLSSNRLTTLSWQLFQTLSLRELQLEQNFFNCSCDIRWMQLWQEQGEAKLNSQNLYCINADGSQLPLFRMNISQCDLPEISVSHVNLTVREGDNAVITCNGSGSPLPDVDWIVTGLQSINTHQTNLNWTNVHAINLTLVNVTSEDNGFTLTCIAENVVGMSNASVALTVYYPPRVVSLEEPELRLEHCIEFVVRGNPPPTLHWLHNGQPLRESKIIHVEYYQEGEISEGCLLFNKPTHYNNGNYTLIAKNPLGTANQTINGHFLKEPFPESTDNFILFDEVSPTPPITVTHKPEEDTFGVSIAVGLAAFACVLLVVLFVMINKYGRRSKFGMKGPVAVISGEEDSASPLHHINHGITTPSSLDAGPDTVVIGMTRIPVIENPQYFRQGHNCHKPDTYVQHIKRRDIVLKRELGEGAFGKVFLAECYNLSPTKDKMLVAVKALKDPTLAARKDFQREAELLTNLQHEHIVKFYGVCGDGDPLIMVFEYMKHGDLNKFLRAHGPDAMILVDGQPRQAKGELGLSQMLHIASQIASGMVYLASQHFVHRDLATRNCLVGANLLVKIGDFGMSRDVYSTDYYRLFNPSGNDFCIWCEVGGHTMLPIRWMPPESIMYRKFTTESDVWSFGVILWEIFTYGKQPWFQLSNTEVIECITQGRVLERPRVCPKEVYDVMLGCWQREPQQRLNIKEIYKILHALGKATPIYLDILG
Source text: as §1

[4] = molecular target: T4, panel of 442 kinases (Homo sapiens, UniProt Q04759); conditions: Compound Concentration 10 µM
T4 construct: purchased KINOMEscan
T4 sequence (Q04759 whole entry): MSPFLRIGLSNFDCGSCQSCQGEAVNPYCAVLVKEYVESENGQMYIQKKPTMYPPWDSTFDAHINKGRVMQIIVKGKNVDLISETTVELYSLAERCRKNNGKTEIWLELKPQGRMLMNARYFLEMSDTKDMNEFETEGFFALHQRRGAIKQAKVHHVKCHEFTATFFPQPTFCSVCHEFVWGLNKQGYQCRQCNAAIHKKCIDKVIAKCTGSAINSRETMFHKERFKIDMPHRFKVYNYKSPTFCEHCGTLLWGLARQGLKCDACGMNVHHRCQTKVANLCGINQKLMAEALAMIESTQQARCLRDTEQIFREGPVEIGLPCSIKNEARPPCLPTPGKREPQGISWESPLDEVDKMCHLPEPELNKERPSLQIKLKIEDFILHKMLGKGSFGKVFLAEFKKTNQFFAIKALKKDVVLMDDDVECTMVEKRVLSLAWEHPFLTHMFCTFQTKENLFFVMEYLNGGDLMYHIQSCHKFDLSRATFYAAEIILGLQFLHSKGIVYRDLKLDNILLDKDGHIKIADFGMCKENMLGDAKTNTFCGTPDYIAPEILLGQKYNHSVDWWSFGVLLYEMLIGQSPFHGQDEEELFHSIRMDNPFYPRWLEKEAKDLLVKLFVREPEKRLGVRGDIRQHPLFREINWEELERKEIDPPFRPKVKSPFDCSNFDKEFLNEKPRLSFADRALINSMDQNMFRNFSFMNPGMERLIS
Source text: as §1

T1 sequence (Q16539 whole entry): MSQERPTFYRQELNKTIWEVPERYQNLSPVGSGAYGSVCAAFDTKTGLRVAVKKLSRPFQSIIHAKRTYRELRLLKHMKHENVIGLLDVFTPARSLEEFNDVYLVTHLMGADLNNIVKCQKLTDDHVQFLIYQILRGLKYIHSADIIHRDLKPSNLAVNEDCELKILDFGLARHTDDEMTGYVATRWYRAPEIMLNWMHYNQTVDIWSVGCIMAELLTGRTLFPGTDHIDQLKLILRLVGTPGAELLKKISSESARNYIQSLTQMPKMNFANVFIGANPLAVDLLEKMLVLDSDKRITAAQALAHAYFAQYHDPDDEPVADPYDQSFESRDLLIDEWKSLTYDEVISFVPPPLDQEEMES

`COc1cc(C(=O)N2CCC(N3CCN(C)CC3)CC2)ccc1Nc1ncc2c(n1)N(C)c1ccccc1C(=O)N2C` [15 (LRRK2-IN-1)] was tested, and the “KINOMEscan: p38-alpha” value [1] was 87, the “% Ctrl, SYK” value [2] was 100 % Ctrl and the “% Ctrl, TRKC” value [3] was 100 % Ctrl. The “KINOMEscan: PRKCQ” value [4] was 100.

In the case of `COc1cc(C(=O)N2CCC(N3CCN(C)CC3)CC2)ccc1Nc1ncc2c(n1)N1CCc3cccc(c31)C(=O)N2C` [Compound 24], the “% Ctrl, SYK” value [2] was 88 % Ctrl and the “% Ctrl, TRKC” value [3] was 100 % Ctrl.

For `COc1cc(C(=O)N2CCC(N3CCN(C)CC3)CC2)ccc1Nc1ncc2c(n1)N(C1CCCC1)c1ccccc1C(=O)N2C` [Compound 25, 11-cyclopentyl-2-((2-methoxy-4-(4-(4-methylpiperazin-1-yl)piperidine-1-carbonyl)phenyl)amino)-5-methyl-5H-benzo[e]pyrimido[5,4-b][1,4]diazepin-6(11H)-one], the “KINOMEscan: p38-alpha” value [1] was 99, the “% Ctrl, SYK” value [2] was 100 % Ctrl and the “% Ctrl, TRKC” value [3] was 100 % Ctrl. For the same molecule, the “KINOMEscan: PRKCQ” value [4] was 100.

In the case of `CCOc1cc(C(=O)N2CCC(N3CCN(C)CC3)CC2)ccc1Nc1ncc2c(n1)N(C1CCCC1)c1ccccc1C(=O)N2C` [Compound 26], the “KINOMEscan: p38-alpha” value [1] was 94, the “% Ctrl, SYK” value [2] was 100 % Ctrl and the “% Ctrl, TRKC” value [3] was 90 % Ctrl. The “KINOMEscan: PRKCQ” value [4] was 100.
